Measurements as given in ChEMBL document CHEMBL3994648, “Design and synthesis of a novel series of 4-heteroarylamino-1'-azaspiro[oxazole-5,3'-bicyclo[2.2.2]octanes as α7 nicotinic receptor agonists 2. Development of 4-heteroaryl SAR” (Bioorg Med Chem Lett, 2017).

Key:
[1] = Plasma concentration in mouse at 0.3 mg/kg, po after 30 mins; type: ADME, organism-based
[2] = Drug uptake in mouse brain at 0.3 mg/kg, po after 30 mins; type: ADME, organism-based; conditions: read-out: Drug uptake

c1ccc(-c2cc(NC3=NC[C@@]4(CN5CCC4CC5)O3)ncn2)cc1
concentration at 0.5 h [1]: 273 nM | concentration at 0.5 h [2]: 81 nM
